# In patent US11124490B2, “Autotaxin inhibitors” (UNIVERSITY OF TENNESSEE RESEARCH FOUNDATION, priority 2016, dated 2021):
# “And” between values parts separate entries of the source, which are not always exact repeats. Equal values may be shown once.
# Legend:
# human recombinant ATX [1] = biological target: T1, human recombinant ATX (Homo sapiens (Human), UniProt Q13822); experiment: ATX inhibition, hydrolysis of FRET substrate FS-3; format: biochemical; conditions: for IC50: 1 μM FS-3, 4 nM human recombinant ATX, 1 hour time point, read-out: IC50 (nM ± SD) vs FS-3
# Protocol: (§1) ATX Generation: Human recombinant ATX was expressed as published previously, using Sf9 Spodoptera frugiperda ovary cells (Invitrogen, Carlsbad, Calif.).^13 Suspension cells were grown to a 1 liter quantity at a concentration of 1×10^6 cells/ml in Sf-900 III serum-free medium (Invitrogen) supplemented with 50 U/ml penicillin and 50 μg/ml streptomycin at 27° C. with agitation. Cells were then infected with high-titer baculovirus generated via Bac-to-Bac Baculovirus Expression System (Invitrogen) using the pCMV5 mammalian expression vector containing the C-terminal FLAG-tagged human ATX sequence (a generous gift from Dr. Junken Aoko, ohoku University, Aoba-ku, Sendai, Japan) subcloned into the pFastBacl transfer vector. […] Resultant ATX was then concentrated via centrifugation in Amicon Ultra 30,000 molecular weight cut off filter units (Millipore, Billerica, Mass.) and subsequent buffer exchange into storage buffer comprised of 50 mM Tris, pH 7.4 with 20% (v/v) ethylene glycol. Protein was held at −80° C. for long-term storage.
# (§2) ATX Inhibition: ATX activity was assessed via hydrolysis of the synthetic, lipid-like FRET-based substrate FS-3 (Echelon Biosciences, Salt Lake City, Utah) or via hydrolysis of the nucleotide substrate p-nitrophenyl thymidine 5′-monophosphate (pNP-TMP) as described previously.^2 Reaction wells were loaded in 60 μl volumes in triplicate wells of half-area, black-wall 96-well plates in assay buffer consisting of 50 mM Tris, 140 mM NaCl, 5 mM KCl, 1 mM CaCl2, 1 mM MgCl2, […] BSA, pH 8.0. […] Fluorescence was read every 2 minutes for 1 hour at excitation/emission wavelengths of 485/528 nm for FS-3 hydrolysis or 405 nm absorbance for pNP-TMP hydrolysis using a FlexStation 3 microplate reader (Molecular Devices, Sunnyvale, Calif.). Data (relative fluorescence or absorbance) were then recorded as a mean value of the triplicates for each sample versus time. […] In the case of mechanism determination, the linear fluorescence data from time 10 minutes to 30 minutes were then transformed using a carboxyfluorescein standard curve to determine product concentration and plotted separately. Linear trend lines were inserted using Microsoft Excel, the slope of which represent the rates of reaction for each substrate concentration. This reaction rate data for each inhibitor concentration were then plotted against substrate (FS-3) concentration and simultaneously fitted via non-linear regression in the Michaelis-Menten equations for competitive, non-competitive, uncompetitive, and mixed-mode inhibition using GraphPad Prism version 5.0a. Mechanism of inhibition was determined by which curve fit had the best global fit (R^2 value).
# human recombinant ATX [2] = biological target: T1, human recombinant ATX; experiment: ATX inhibition, hydrolysis of nucleotide substrate pNP-TMP; format: biochemical; conditions: 1 mM pNP-TMP, 4 nM ATX, compound 0 to 1 μM
# Protocol: as §1, §2
Compound,ATX inhibitory activity (in words) (human recombinant ATX [1]),pNP-TMP Inhibition (human recombinant ATX [2]),IC50 (human recombinant ATX [1]),"Mechanism (human recombinant ATX [1]; mechanism of inhibition, FS-3 0 to 10 μM, inhibitor 0, 0.5×IC50 or 2×IC50)",fold IC50 improvement relative to screening hit 918013 (human recombinant ATX [1])
"CN(C(=O)c1cc(S(=O)(=O)N2CCOCC2)c(Cl)cc1Cl)c1cccc(F)c1 [Compound 9, 2,4-dichloro-N-(3-fluorophenyl)-N-methyl-5-(morpholinosulfonyl)benzamide]",low activity,–,–,–,–
"O=S(=O)(Nc1cccc(F)c1)c1cc(S(=O)(=O)N2CCOCC2)c(Cl)cc1Cl [Compound 22, 2,4-dichloro-N-(3-fluorophenyl)-5-(morpholinosulfonyl)benzenesulfonamide]",–,None,> 1000 nM,–,–
"O=S(=O)(c1cc(CNc2cc(F)c(F)c(F)c2)c(Cl)cc1Cl)N1CCOCC1 [Compound 11, N-(2,4-dichloro-5-(morpholinosulfonyl)benzyl)-3,4,5-trifluoroaniline]",–,None,396 ± 44.1 nM,–,–
"O=C(Nc1cc(F)c(F)c(F)c1)c1cc(NN2CCOCC2)c(Cl)cc1Cl [Compound 25, 2,4-dichloro-5-(morpholinoamino)-N-(3,4,5-trifluorophenyl)benzamide]",inactive,None,> 1000 nM,–,–
"O=S(=O)(c1cc(C(=S)Nc2ccc(F)c(F)c2)c(Cl)cc1Cl)N1CCOCC1 [Compound 13, 2,4-dichloro-N-(3,4-difluorophenyl)-5-(morpholinosulfonyl)benzothioamide]",–,None,67.3 ± 9.73 nM,–,–
"O=S(=O)(Nc1cc(F)c(F)c(F)c1)c1cc(S(=O)(=O)N2CCOCC2)c(Cl)cc1Cl [Compound 23, 2,4-dichloro-5-(morpholinosulfonyl)-N-(3,4,5-trifluorophenyl)benzenesulfonamide]",–,None,> 1000 nM,–,–
"O=C(Nc1cccc(F)c1)c1cc(S(=O)(=O)N2CCOCC2)c(Cl)cc1Cl [Compound 918013, 2,4-dichloro-N-(3-fluorophenyl)-5-(morpholinosulfonyl)benzamide, reference compound]",–,None,117 ± 1.97 nM,Competitive,–
"O=S(=O)(c1cc(C(=S)Nc2cc(F)c(F)c(F)c2)c(Cl)cc1Cl)N1CCOCC1 [Compound 14, 2,4-dichloro-5-(morpholinosulfonyl)-N-(3,4,5-trifluorophenyl)benzothioamide]",–,None,35.3 ± 2.66 nM,–,three fold
"CN1CCN(S(=O)(=O)c2cc(C(=S)Nc3cc(Cl)c(F)c(Cl)c3)c(Cl)cc2Cl)CC1 [Compound 29, 2,4-dichloro-N-(3,5-dichloro-4-fluorophenyl)-5-((4-methylpiperazin-1-yl)sulfonyl)-benzothioamide]",–,None,100 ± 8.11 nM,–,–
O=S(=O)(Nc1cc(S(=O)(=O)N2CCOCC2)c(Cl)cc1Cl)c1cccc(F)c1 [Compound 19],–,None,> 1000 nM,–,–
"O=S(=O)(c1cc(CNc2ccc(F)c(F)c2)c(Cl)cc1Cl)N1CCOCC1 [Compound 10, N-(2,4-dichloro-5-(morpholinosulfonyl)benzyl)-3,4-difluoroaniline]",greatly deteriorated,None,–,–,–
"O=C(Nc1cc(F)c(C(=O)O)c(F)c1)c1cc(S(=O)(=O)N2CCOCC2)c(Cl)cc1Cl [Compound 4, 4-(2,4-dichloro-5-(morpholinosulfonyl)benzamido)-2,6-difluorobenzoic Acid]",relatively inactive,None,> 1000 nM,–,–
"O=S(=O)(c1cc(-c2nc3cccc(F)c3o2)c(Cl)cc1Cl)N1CCOCC1 [Compound 7, 2-(2,4-dichloro-5-(morpholinosulfonyl)phenyl)-7-fluorobenzo[d]oxazole]",inactive,–,–,–,–
"O=S(=O)(c1cc(-c2nc3cc(F)c(F)cc3[nH]2)c(Cl)cc1Cl)N1CCOCC1 [Compound 8, 4-((2,4-dichloro-5-(5,6-difluoro-1H-benzo[d]imidazol-2-yl)phenyl)sulfonyl)-morpholine]",inactive,–,–,–,–
"O=C(Nc1cc(F)c(F)c(F)c1Br)c1cc(S(=O)(=O)N2CCOCC2)c(Cl)cc1Cl [Compound 5, N-(2-bromo-3,4,5-trifluorophenyl)-2,4-dichloro-5-(morpholinosulfonyl)benzamide]",strong ATX inhibition,–,–,–,seven fold
O=S(=O)(c1cc(N(S(=O)(=O)c2cccc(F)c2)S(=O)(=O)c2cccc(F)c2)c(Cl)cc1Cl)N1CCOCC1 [Compound 20],–,None,> 1000 nM,–,–
"O=S(=O)(c1cc(C(=S)Nc2cccc(F)c2)c(Cl)cc1Cl)N1CCOCC1 [Compound 12, 2,4-dichloro-N-(3-fluorophenyl)-5-(morpholinosulfonyl)benzothioamide]",–,None,121.5 ± 1.02 nM,–,–
"O=S(=O)(c1cc(C(=S)Nc2cc(Cl)c(F)c(Cl)c2)c(Cl)cc1Cl)N1CCOCC1 [Compound 15, 2,4-dichloro-N-(3,5-dichloro-4-fluorophenyl)-5-(morpholinosulfonyl)-benzothioamide]",–,None,83.1 ± 9.77 nM,–,–

# Continued, values first:
ATX inhibitory activity (in words) (human recombinant ATX [1]),pNP-TMP Inhibition (human recombinant ATX [2]),IC50 (human recombinant ATX [1]),"Mechanism (human recombinant ATX [1]; mechanism of inhibition, FS-3 0 to 10 μM, inhibitor 0, 0.5×IC50 or 2×IC50)",fold IC50 improvement relative to screening hit 918013 (human recombinant ATX [1]),Compound
–,None,66 nM and 66.9 nM,–,–,"CN1CCN(S(=O)(=O)c2cc(C(=O)Nc3cc(F)c(F)c(F)c3)c(Cl)cc2Cl)CC1 [Compound 28a, 2,4-dichloro-5-((4-methylpiperazin-1-yl)sulfonyl)-N-(3,4,5-trifluorophenyl)-benzamide]"
–,None,864 ± 51.9 nM,–,–,"COC(=O)c1c(F)cc(NC(=O)c2cc(S(=O)(=O)N3CCOCC3)c(Cl)cc2Cl)cc1F [Compound 3i, Methyl 4-(2,4-dichloro-5-(morpholinosulfonyl)benzamido)-2,6-difluorobenzoate]"
–,None,55 nM and 55.5 nM,–,–,"CN1CCN(S(=O)(=O)c2cc(C(=O)Nc3cc(Cl)c(F)c(Cl)c3)c(Cl)cc2Cl)CC1 [Compound 28b, 2,4-dichloro-N-(3,5-dichloro-4-fluorophenyl)-5-((4-methylpiperazin-1-yl)sulfonyl)benzamide]"
–,None,190 ± 13.1 nM,–,–,"N#Cc1c(F)cc(NC(=O)c2cc(S(=O)(=O)N3CCOCC3)c(Cl)cc2Cl)cc1F [Compound 3h, 2,4-dichloro-N-(4-cyano-3,5-difluorophenyl)-5-(morpholinosulfonyl)benzamide]"
poorly active,None,> 1000 nM,–,–,"COc1cc(NC(=O)c2cc(S(=O)(=O)N3CCOCC3)c(Cl)cc2Cl)cc(OC)c1OC [Compound 3e, 2,4-dichloro-5-(morpholinosulfonyl)-N-(3,4,5-trimethoxyphenyl)benzamide]"
poorly active,None,1030 nM,–,–,"O=C(Nc1c(F)c(F)c(F)c(F)c1F)c1cc(S(=O)(=O)N2CCOCC2)c(Cl)cc1Cl [Compound 3c, 2,4-dichloro-5-(morpholinosulfonyl)-N-(perfluorophenyl)benzamide]"
poorly active,None,> 1000 nM,–,–,"O=C(Nc1cc(Cl)c(Cl)c(Cl)c1)c1cc(S(=O)(=O)N2CCOCC2)c(Cl)cc1Cl [Compound 3d, 2,4-dichloro-5-(morpholinosulfonyl)-N-(3,4,5-trichlorophenyl)benzamide]"
inactive,None,> 1000 nM,–,–,"CS(=O)(=O)N(C(=O)c1cc(NN2CCOCC2)c(Cl)cc1Cl)c1cc(F)c(F)c(F)c1 [Compound 26a, 2,4-dichloro-N-(methylsulfonyl)-5-(morpholinoamino)-N-(3,4,5-trifluorophenyl)-benzamide]"
